Tests used:
[1] = cited from earlier work
[2] = From the text: Ion concentrations exceeding the maximum values established by the solubility product should lead to precipitations.

| bromide ions in saturated chlorhexidine bromide solution [2] [mg per liter] | chlorhexidine dication in saturated chlorhexidine bromide solution [2] | Structure (SMILES) | water solubility [1] |
| --- | --- | --- | --- |
| – | – | CCCCCCCCCCCCCCCC[N+](C)(C)C.[Br-] [cetrimide, N-cetyl-N,N,N-trimethylammonium bromide] | approx. 67 g/l |
| ~450 | approximately 1400 mg per liter | Br.Br.N=C(NCCCCCCNC(=N)NC(=N)Nc1ccc(Cl)cc1)NC(=N)Nc1ccc(Cl)cc1 [chlorhexidine dibromide] | – |

From patent US6844306B2, “Water-soluble, chlorhexidine-containing compositions and use thereof” (Degussa AG, priority 2000, dated 2005)
